Data from article PMC4190408, “Acylation of Glucagon-Like Peptide-2: Interaction with Lipid Membranes and In Vitro Intestinal Permeability” (PLoS ONE, 2014).
Side chains are listed from the residue outwards. Peptide text beside a SMILES is read from it. * marks the point of attachment. Palmitoyl = CCCCCCCCCCCCCCCC(=O)*; Lauroyl = CCCCCCCCCCCC(=O)*; Octanoyl = CCCCCCCC(=O)*; βAla = NCCC(=O)O

Tested on: Caco-2 cells
Assay: Translocation across Caco-2 cell monolayers
Type: in vitro ADME, human
Conditions: for Caco-2 translocation relative to native GLP-2 (in words): Caco-2 monolayers
Description: Caco-2 cells (passage 40–65) were cultured routinely in DMEM with 10% (v/v) FBS, 1% (v/v) nonessential amino acids, 100 U penicillin, 0.1 mg/mL streptomycin and 2 mM L-glutamine. The Caco-2 cells were seeded at a density of [drawing 60] cells/well on 12 well Transwells plates and grown for 14–16 days in DMEM with media change every second day. The cell layer was confirmed to consist of a single monolayer of cells by fixing and staining the cell layer, and visualizing by fluorescence microscopy.
Before transport experiments, DMEM medium was changed to HBSS buffer (containing 10 mM HEPES and 0.1% (w/v) OVA; 0.4 mL apical side and 1 mL basolateral) and left to equilibrate for 60 minutes. Buffer was replaced apically by 0.4 mL test solution at time zero, and the plates were incubated at [drawing 61] and 5% [drawing 62] with gentle shaking. Test solutions contained 100 [drawing 63] peptide and 0.8 [drawing 64] [ [drawing 65] ]mannitol (a permeability marker). Basolateral samples of 200 [drawing 66] were taken every 15 minutes for 1 hour, and replaced by buffer. The apical test solution and basolateral samples were diluted and analyzed for peptide content with the luciferase assay and for [ [drawing 67] ]mannitol content in a scintillation counter (Packard TopCount), after mixing 1∶1 with scintillation fluid.
The integrity of cell monolayers before, during, and after experiments was verified by measuring the translocation of radioactively labelled mannitol and the transepithelial electrical resistance (TEER), using a Milicell ERS-2 epithelial volt-ohm meter (Millipore, USA). Mannitol translocation and TEER values were not affected by addition of peptide or analogues compared to buffer.
The Caco-2 translocation of peptide or mannitol over Caco-2 layers is expressed as the apparent permeability ( [drawing 72] ), given by: [drawing 73] (6) where [drawing 74] is the steady-state flux of peptide (pmol/s), [drawing 75] is the surface area of the cell monolayer (1.12 [drawing 76] ), and [drawing 77] is the initial sample concentration added to the cell layer.

[1] = apical to basolateral, 1 hour, no enhancer, 3 separate experiments each with 4 repeats

Caco-2 translocation with absorption enhancer, times the native peptide (Caco-2, apical to basolateral, in the presence of EGTA (paracellular) or SDS (transcellular), 2 separate experiments each with 4 repeats) | increase in Caco-2 translocation compared to native GLP-2 (factor) (Caco-2 monolayers 14-16 days, apical to basolateral, 100 (unit is a drawing) peptide, HBSS with 10 mM HEPES and 0.1% OVA, 1 hour, luciferase assay read-out, no enhancer, 3 separate experiments each with 4 repeats) | Caco-2 translocation in the presence of SDS (in words) (Caco-2, apical to basolateral, SDS) | increase in peptide permeability with SDS compared to peptide alone (Caco-2, apical to basolateral, SDS (transcellular enhancer), 2 separate experiments each with 4 repeats) | SMILES | Caco-2 translocation relative to native GLP-2 (in words) [1]
approximately 1.5 | ~1.5 |  |  | CCCCCCCCCCCC(=O)NCCC(=O)NCCCC[C@H](NC(=O)[C@H](CC(N)=O)NC(=O)[C@H](CC(=O)O)NC(=O)[C@H](CC(C)C)NC(=O)[C@@H](NC(=O)[C@@H](NC(=O)[C@H](CC(N)=O)NC(=O)[C@H](CCSC)NC(=O)[C@H](CCC(=O)O)NC(=O)[C@H](CC(=O)O)NC(=O)[C@H](CO)NC(=O)[C@H](Cc1ccccc1)NC(=O)[C@H](CO)NC(=O)CNC(=O)[C@H](CCC(=O)O)NC(=O)[C@H](C)NC(=O)[C@@H](N)Cc1c[nH]cn1)[C@@H](C)O)[C@@H](C)CC)C(=O)N[C@@H](C)C(=O)N[C@@H](C)C(=O)N[C@@H](CCCNC(=N)N)C(=O)N[C@@H](CC(=O)O)C(=O)N[C@@H](Cc1ccccc1)C(=O)N[C@H](C(=O)N[C@@H](CC(N)=O)C(=O)N[C@@H](Cc1c[nH]c2ccccc12)C(=O)N[C@@H](CC(C)C)C(=O)N[C@H](C(=O)N[C@@H](CCC(N)=O)C(=O)N[C@H](C(=O)N[C@@H](CCCNC(=N)N)C(=O)N[C@H](C(=O)N[C@H](C(=O)N[C@@H](CC(=O)O)C(=O)O)[C@@H](C)O)[C@@H](C)CC)[C@@H](C)O)[C@@H](C)CC)[C@@H](C)CC [c12] (H-HAEGSFSDEMNTILDNK([βAla-Lauroyl])AARDFINWLIQTRITD-OH) | increase the translocation relative to native GLP-2
 |  |  |  | CCCCCCCC(=O)NCCC(=O)NCCCC[C@H](NC(=O)[C@H](CC(N)=O)NC(=O)[C@H](CC(=O)O)NC(=O)[C@H](CC(C)C)NC(=O)[C@@H](NC(=O)[C@@H](NC(=O)[C@H](CC(N)=O)NC(=O)[C@H](CCSC)NC(=O)[C@H](CCC(=O)O)NC(=O)[C@H](CC(=O)O)NC(=O)[C@H](CO)NC(=O)[C@H](Cc1ccccc1)NC(=O)[C@H](CO)NC(=O)CNC(=O)[C@H](CCC(=O)O)NC(=O)[C@H](C)NC(=O)[C@@H](N)Cc1c[nH]cn1)[C@@H](C)O)[C@@H](C)CC)C(=O)N[C@@H](C)C(=O)N[C@@H](C)C(=O)N[C@@H](CCCNC(=N)N)C(=O)N[C@@H](CC(=O)O)C(=O)N[C@@H](Cc1ccccc1)C(=O)N[C@H](C(=O)N[C@@H](CC(N)=O)C(=O)N[C@@H](Cc1c[nH]c2ccccc12)C(=O)N[C@@H](CC(C)C)C(=O)N[C@H](C(=O)N[C@@H](CCC(N)=O)C(=O)N[C@H](C(=O)N[C@@H](CCCNC(=N)N)C(=O)N[C@H](C(=O)N[C@H](C(=O)N[C@@H](CC(=O)O)C(=O)O)[C@@H](C)O)[C@@H](C)CC)[C@@H](C)O)[C@@H](C)CC)[C@@H](C)CC [c8] (H-HAEGSFSDEMNTILDNK([βAla-Octanoyl])AARDFINWLIQTRITD-OH) | increase the translocation relative to native GLP-2
 |  | remains lower than for the c12 peptide | the increase is greater | CCCCCCCCCCCCCCCC(=O)NCCC(=O)NCCCC[C@H](NC(=O)[C@H](CC(N)=O)NC(=O)[C@H](CC(=O)O)NC(=O)[C@H](CC(C)C)NC(=O)[C@@H](NC(=O)[C@@H](NC(=O)[C@H](CC(N)=O)NC(=O)[C@H](CCSC)NC(=O)[C@H](CCC(=O)O)NC(=O)[C@H](CC(=O)O)NC(=O)[C@H](CO)NC(=O)[C@H](Cc1ccccc1)NC(=O)[C@H](CO)NC(=O)CNC(=O)[C@H](CCC(=O)O)NC(=O)[C@H](C)NC(=O)[C@@H](N)Cc1c[nH]cn1)[C@@H](C)O)[C@@H](C)CC)C(=O)N[C@@H](C)C(=O)N[C@@H](C)C(=O)N[C@@H](CCCNC(=N)N)C(=O)N[C@@H](CC(=O)O)C(=O)N[C@@H](Cc1ccccc1)C(=O)N[C@H](C(=O)N[C@@H](CC(N)=O)C(=O)N[C@@H](Cc1c[nH]c2ccccc12)C(=O)N[C@@H](CC(C)C)C(=O)N[C@H](C(=O)N[C@@H](CCC(N)=O)C(=O)N[C@H](C(=O)N[C@@H](CCCNC(=N)N)C(=O)N[C@H](C(=O)N[C@H](C(=O)N[C@@H](CC(=O)O)C(=O)O)[C@@H](C)O)[C@@H](C)CC)[C@@H](C)O)[C@@H](C)CC)[C@@H](C)CC [c16] (H-HAEGSFSDEMNTILDNK([βAla-Palmitoyl])AARDFINWLIQTRITD-OH) | decreases it slightly
